Results: article PMC7725003, “Systematically Studying the Optimal Amino Acid Distribution Patterns of the Amphiphilic Structure by Using the Ultrashort Amphiphiles” (Frontiers in Microbiology, 2020)
Where no end group is shown, it is not given here.

Tests used:
P. aeruginosa 27853 = format: cell-based, Pseudomonas aeruginosa; details: 27853, 24 h
Method: (§1) The antimicrobial activities of the peptides were measured using a method adapted from the National Committee for Clinical Laboratory Standards (NCCLS) with some modifications ([Chou et al., 2016]). The specific procedure for these assays has been previously described. In brief, the bacterial cells were grown to a mid-logarithmic phase and diluted in MHB to an ultimate concentration of 0.5–1 × 10^6 CFU mL^–1. Subsequently, the peptides were consecutively diluted in a 0.2% BSA solution and then added to a bacterial solution in a 96-well plate at identical volumes. After incubation for 24 h at 37°C, the MICs were determined to be the lowest peptide concentration that inhibited 95% of the bacterial growth by monitoring the absorbance at 492 nm using a microplate reader. Subsequently, 50 μL of each incubation mixture was further transferred to agar plates and incubated overnight. The minimum bactericidal concentrations (MBCs) were determined as the lowest peptide concentration that killed greater than 99.9% of the bacterial cells. Every assay was reproduced more than 3 times.

[1] = test system: all of the tested bacterial strains; assay: Geometric mean of MICs, all tested bacterial strains; format: cell-based; details: for GM, All: geometric mean of MICs across all tested strains; for TI, All: therapeutic index TI = MHC/GM MIC
Source text: The antimicrobial activity of AMPs is the most decisive index for evaluating the clinical application of antimicrobial drugs. Many antimicrobial agents inhibit bacterial growth rather than kill the bacteria quickly, and long-term infections are pathogens that are not completely killed, which results in bacterial severe drug resistance. […] The geometric mean (GM) values of the MICs/MBCs of the two series across all of the tested bacterial strains are represented in Table 3, which depicts the average bacteriostatic/bactericidal level of a peptide.
as §1

S. epidermidis 12228 = format: cell-based, Staphylococcus epidermidis; details: 12228, 24 h
Method: as §1

MRSA 43300 = format: cell-based, methicillin-resistant S. aureus; details: 43300, 24 h
Method: as §1

[2] = test system: Listeria monocytogenes CGMCC 1.1075; format: cell-based; details: CGMCC 1.1075, 24 h
Method: as §1

S. aureus 29213 [3] = assay: Salt sensitivity assay (MIC); format: cell-based, Staphylococcus aureus; details: for MIC, FeCl3: 4 μM FeCl3; for MIC, NH4Cl: 6 μM NH4Cl; for MIC, ZnCl2: 8 μM ZnCl2; for MIC, MgCl2: 1 mM MgCl2; for MIC, CaCl2: 2 mM CaCl2; for MIC, KCl: 4.5 mM KCl; for MIC, NaCl: 150 mM NaCl; for MIC, Control: no added salt, three independent assays
Method: as §1
(§2) The salt sensitivities of the peptides were determined. E. coli ATCC 25922 and S. aureus ATCC 29213 were incubated in the presence of various ultimate concentrations of physiological salts (150 mM NaCl, 4.5 mM KCl, 6 μM NH4Cl, 8 μM ZnCl2, 1 mM MgCl2, 2mM CaCl2, and 4 μM FeCl3) according to our previous protocol ([Yang et al., 2019]). These tests were performed under the MICs, and three independent assays were performed.

Gram-negative bacteria = details: for GM, Gram-negative bacteria: geometric mean of MICs (Table 3); for TI, Gram-negative bacteria: therapeutic index TI = MHC/GM MIC
Method: (§3) The antimicrobial activity of AMPs is the most decisive index for evaluating the clinical application of antimicrobial drugs.
as §1, with “The minimum bactericidal concentrations (MBCs) were determined as the lowest peptide concentration that killed greater than 99.9% of the bacterial cells.” left out

Gram-positive bacteria = details: for GM, Gram-positive bacteria: geometric mean of MICs (Table 3); for TI, Gram-positive bacteria: therapeutic index TI = MHC/GM MIC
Method: as §3
as §1, with “The minimum bactericidal concentrations (MBCs) were determined as the lowest peptide concentration that killed greater than 99.9% of the bacterial cells.” left out

E. faecalis 29212 = format: cell-based, Enterococcus faecalis; details: 29212, 24 h
Method: as §1

B. subtilis 63501 = format: cell-based, Bacillus subtilis; details: 63501, 24 h
Method: as §1

E. coli ATCC 25922 = assay: Salt sensitivity assay (MIC); format: cell-based, Escherichia coli; details: for MIC, FeCl3: 4 μM FeCl3; for MIC, NH4Cl: 6 μM NH4Cl; for MIC, ZnCl2: 8 μM ZnCl2; for MIC, MgCl2: 1 mM MgCl2; for MIC, CaCl2: 2 mM CaCl2; for MIC, KCl: 4.5 mM KCl; for MIC, NaCl: 150 mM NaCl; for MIC, Control: no added salt, three independent assays
Method: as §1, §2

S. aureus 25923 = format: cell-based, Staphylococcus aureus; details: 25923, 24 h
Method: as §1

S. aureus 29213 [4] = format: cell-based, Staphylococcus aureus; details: 29213, 24 h
Method: as §1

S. typhimurium 14028 = format: cell-based, Salmonella typhimurium; details: 14028, 24 h
Method: as §1

S. typhimurium 7731 = format: cell-based, Salmonella typhimurium; details: 7731, 24 h
Method: as §1

E. coli O78 = format: cell-based, Escherichia coli; details: O78, 24 h
Method: as §1

E. coli 25922 = format: cell-based, Escherichia coli; details: 25922, 24 h
Method: as §1

E. coli UB1005 = format: cell-based, Escherichia coli; details: UB1005, 24 h
Method: as §1

S. pullorum 7913 = format: cell-based, Salmonella pullorum; details: 7913, 24 h
Method: as §1

For WRRRRWWWW-NH2 [W11], the MBC (P. aeruginosa 27853) was 16 µM, the MIC (P. aeruginosa 27853) was 8 µM and the “GM, All” value [1] was 3.83 µM. For the same substance, the “TI, All” value [1] was 66.84, the MBC (S. epidermidis 12228) was 4 µM and the MIC (S. epidermidis 12228) was 2 µM. For the same substance, the MBC (MRSA 43300) was 4 µM, the MIC (MRSA 43300) was 2 µM and the MBC [2] was 8 µM. It also gave an MIC [2] of 4 µM, an MIC, FeCl3 (S. aureus 29213 [3]) of 2 µM and an MIC, NH4Cl (S. aureus 29213 [3]) of 1 µM. The MIC, ZnCl2 (S. aureus 29213 [3]) was 2 µM, the MIC, MgCl2 (S. aureus 29213 [3]) was 2 µM and the MIC, CaCl2 (S. aureus 29213 [3]) was 2 µM. For the same substance, the MIC, KCl (S. aureus 29213 [3]) was 1 µM, the MIC, NaCl (S. aureus 29213 [3]) was 2 µM and the MIC, Control (S. aureus 29213 [3]) was 2 µM. For the same substance, the “GM, Gram-negative bacteria” value (Gram-negative bacteria) was 5.88 µM, the “TI, Gram-negative bacteria” value (Gram-negative bacteria) was 43.54 and the “GM, Gram-positive bacteria” value (Gram-positive bacteria) was 2.21 µM. The “TI, Gram-positive bacteria” value (Gram-positive bacteria) was 115.84, the MBC (E. faecalis 29212) was 8 µM and the MIC (E. faecalis 29212) was 4 µM. For the same substance, the MBC (B. subtilis 63501) was 2 µM, the MIC (B. subtilis 63501) was 1 µM and the MIC, FeCl3 (E. coli ATCC 25922) was 4 µM. The MIC, NH4Cl (E. coli ATCC 25922) was 2 µM, the MIC, ZnCl2 (E. coli ATCC 25922) was 2 µM and the MIC, MgCl2 (E. coli ATCC 25922) was 8 µM. For the same substance, the MIC, CaCl2 (E. coli ATCC 25922) was 16 µM, the MIC, KCl (E. coli ATCC 25922) was 8 µM and the MIC, NaCl (E. coli ATCC 25922) was 8 µM. For the same substance, the MIC, Control (E. coli ATCC 25922) was 4 µM, the MBC (S. aureus 25923) was 4 µM and the MIC (S. aureus 25923) was 2 µM. It also gave an MBC (S. aureus 29213 [4]) of 4 µM, an MIC (S. aureus 29213 [4]) of 2 µM and an MBC (S. typhimurium 14028) of 16 µM. It also gave an MIC (S. typhimurium 14028) of 8 µM, an MBC (S. typhimurium 7731) of 16 µM and an MIC (S. typhimurium 7731) of 8 µM. The MBC (E. coli O78) was 16 µM, the MIC (E. coli O78) was 8 µM and the MBC (E. coli 25922) was 8 µM. The MIC (E. coli 25922) was 4 µM, the MBC (E. coli UB1005) was 8 µM and the MIC (E. coli UB1005) was 4 µM. The MBC (S. pullorum 7913) was 8 µM and the MIC (S. pullorum 7913) was 4 µM.
With WRRRWWWWR-NH2 [W6] the MBC (P. aeruginosa 27853) was 16 µM, the MIC (P. aeruginosa 27853) was 8 µM and the “GM, All” value [1] was 3.51 µM. The “TI, All” value [1] was 72.93, the MBC (S. epidermidis 12228) was 8 µM and the MIC (S. epidermidis 12228) was 4 µM. It also gave an MBC (MRSA 43300) of 4 µM, an MIC (MRSA 43300) of 2 µM and an MBC [2] of 4 µM. It also gave an MIC [2] of 2 µM, an MIC, FeCl3 (S. aureus 29213 [3]) of 2 µM and an MIC, NH4Cl (S. aureus 29213 [3]) of 2 µM. The MIC, ZnCl2 (S. aureus 29213 [3]) was 2 µM, the MIC, MgCl2 (S. aureus 29213 [3]) was 4 µM and the MIC, CaCl2 (S. aureus 29213 [3]) was 4 µM. The MIC, KCl (S. aureus 29213 [3]) was 2 µM, the MIC, NaCl (S. aureus 29213 [3]) was 4 µM and the MIC, Control (S. aureus 29213 [3]) was 2 µM. For the same substance, the “GM, Gram-negative bacteria” value (Gram-negative bacteria) was 5.04 µM, the “TI, Gram-negative bacteria” value (Gram-negative bacteria) was 50.79 and the “GM, Gram-positive bacteria” value (Gram-positive bacteria) was 2.21 µM. For the same substance, the “TI, Gram-positive bacteria” value (Gram-positive bacteria) was 115.84, the MBC (E. faecalis 29212) was 8 µM and the MIC (E. faecalis 29212) was 4 µM. For the same substance, the MBC (B. subtilis 63501) was 2 µM, the MIC (B. subtilis 63501) was 1 µM and the MIC, FeCl3 (E. coli ATCC 25922) was 4 µM. The MIC, NH4Cl (E. coli ATCC 25922) was 2 µM, the MIC, ZnCl2 (E. coli ATCC 25922) was 4 µM and the MIC, MgCl2 (E. coli ATCC 25922) was 8 µM. For the same substance, the MIC, CaCl2 (E. coli ATCC 25922) was 16 µM, the MIC, KCl (E. coli ATCC 25922) was 8 µM and the MIC, NaCl (E. coli ATCC 25922) was 16 µM. The MIC, Control (E. coli ATCC 25922) was 4 µM, the MBC (S. aureus 25923) was 4 µM and the MIC (S. aureus 25923) was 2 µM. For the same substance, the MBC (S. aureus 29213 [4]) was 4 µM, the MIC (S. aureus 29213 [4]) was 2 µM and the MBC (S. typhimurium 14028) was 16 µM. The MIC (S. typhimurium 14028) was 8 µM, the MBC (S. typhimurium 7731) was 16 µM and the MIC (S. typhimurium 7731) was 8 µM. For the same substance, the MBC (E. coli O78) was 8 µM, the MIC (E. coli O78) was 4 µM and the MBC (E. coli 25922) was 8 µM. It also gave an MIC (E. coli 25922) of 4 µM, an MBC (E. coli UB1005) of 8 µM and an MIC (E. coli UB1005) of 4 µM. For the same substance, the MBC (S. pullorum 7913) was 16 µM and the MIC (S. pullorum 7913) was 8 µM.
